Measurements as given in patent US20060293307A1, “Oxazolidinone derivatives as antimicrobials” (priority 2002, published 2006).
Values after ≈ are worked out from the molar mass of the structure shown. Like-named read-outs stand apart in the source and are kept apart here.

Key:
[1] = test system: H. influenzae 35056; experiment: MIC against Haemophilus strains; format: cell-based; conditions: s. No. 1, H. influenzae 35056
[2] = test system: H. influenzae ATCC 49247; experiment: MIC against Haemophilus strains; format: cell-based; conditions: s. No. 2, H. influenzae ATCC 49247
[3] = test system: H. influenzae βIac; experiment: MIC against Haemophilus strains; format: cell-based; conditions: s. No. 3, H. influenzae βIac
[4] = test system: H. influenzae R; experiment: MIC against Haemophilus strains; format: cell-based; conditions: s. No. 4, H. influenzae R
[5] = test system: H. influenzae 23; experiment: MIC against Haemophilus strains; format: cell-based; conditions: s. No. 5, H. influenzae 23
[6] = test system: H. influenzae 49766; experiment: MIC against Haemophilus strains; format: cell-based; conditions: s. No. 6, H. influenzae 49766
[7] = test system: H. influenzae 1381; experiment: MIC against Haemophilus strains; format: cell-based; conditions: s. No. 7, H. influenzae 1381
[8] = test system: H. influenzae 451; experiment: MIC against Haemophilus strains; format: cell-based; conditions: s. No. 8, H. influenzae 451
[9] = test system: H. influenzae 1745; experiment: MIC against Haemophilus strains; format: cell-based; conditions: s. No. 9, H. influenzae 1745
[10] = test system: H. influenzae P318; experiment: MIC against Haemophilus strains; format: cell-based; conditions: s. No. 10, H. influenzae P318
[11] = test system: H. influenzae 474; experiment: MIC against Haemophilus strains; format: cell-based; conditions: s. No. 11, H. influenzae 474
[12] = Haemophilus influenzae, read-out: MIC

MIC [1] [µg/mL]	MIC [2] [µg/mL]	MIC [3] [µg/mL]	MIC [4] [µg/mL]	MIC [5] [µg/mL]	MIC [6] [µg/mL]	MIC [7] [µg/mL]	MIC [8] [µg/mL]	MIC [9] [µg/mL]	MIC [10] [µg/mL]	MIC [11] [µg/mL]	SMILES	also measured
–	–	–	–	–	–	–	–	–	–	–	O=C(CF)NC[C@H]1CN(c2ccc(N3CCN(c4ccc([N+](=O)[O-])s4)CC3)c(F)c2)C(=O)O1	melting point: 145 to 150 °C
0.06 (≈ 0.108 µM)	0.125 (≈ 0.225 µM)	<0.002	0.004 (≈ 0.00721 µM)	0.004 (≈ 0.00721 µM)	0.008 (≈ 0.0144 µM)	0.008 (≈ 0.0144 µM)	0.008 (≈ 0.0144 µM)	0.004 (≈ 0.00721 µM)	0.015 (≈ 0.027 µM)	0.004 (≈ 0.00721 µM)	CO/N=C(\C(=O)N[C@@H]1C(=O)N2C(C(=O)O)=C(CSc3nc(=O)c(O)nn3C)CS[C@H]12)c1csc(N)n1 [Ceftriaxone, reference compound]	–
0.015 (≈ 0.0415 µM)	0.015 (≈ 0.0415 µM)	0.008 (≈ 0.0221 µM)	0.015 (≈ 0.0415 µM)	0.015 (≈ 0.0415 µM)	0.03 (≈ 0.083 µM)	0.015 (≈ 0.0415 µM)	0.015 (≈ 0.0415 µM)	0.03 (≈ 0.083 µM)	0.03 (≈ 0.083 µM)	0.015 (≈ 0.0415 µM)	C[C@H]1COc2c(N3CCN(C)CC3)c(F)cc3c(=O)c(C(=O)O)cn1c23 [LevoFloxaci, reference compound]	–
–	–	–	–	–	–	–	–	–	–	–	CC[C@H]1OC(=O)[C@H](C)C(=O)[C@H](C)[C@@H](O[C@@H]2O[C@H](C)C[C@H](N(C)C)[C@H]2O)[C@](C)(OC)C[C@@H](C)C(=O)[C@H](C)[C@H]2N(CCCCn3cnc(-c4cccnc4)c3)C(=O)O[C@]12C [Telithromycin, reference compound]	MIC [1, 12]: 2 µg/mL (≈ 2.46 µM); MIC ([2]; Haemophilus influenzae, ATCC49247, read-out: MIC): 2 µg/mL (≈ 2.46 µM); MIC [3, 12]: 2 µg/mL (≈ 2.46 µM); MIC [4, 12]: 2 µg/mL (≈ 2.46 µM); MIC [5, 12]: 2 µg/mL (≈ 2.46 µM); MIC [6, 12]: 2 µg/mL (≈ 2.46 µM); MIC [7, 12]: 2 µg/mL (≈ 2.46 µM); MIC [8, 12]: 2 µg/mL (≈ 2.46 µM); MIC [9, 12]: 1 µg/mL (≈ 1.23 µM); MIC [10, 12]: 1 µg/mL (≈ 1.23 µM); MIC [11, 12]: 2 µg/mL (≈ 2.46 µM)
